# Source: ChEMBL document CHEMBL1201862, “PubChem BioAssay data set” (2004)
#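 48-hour exposure; five concentrations; linearly interpolated endpoints. Here, GI50 denotes the concentration required for 50% inhibition of growth.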 Active and inactive are the calls of the source. Rule as the data show it: active = GI50 up to about 1.1 µM and inactive = higher.
# Assays:
# Experiment in all cases: NCI tumour cell line growth inhibition, 48 h
# ACHN = test system: ACHN
# HCC 2998 = test system: HCC 2998
# HCT-116 = test system: HCT-116
# HL-60 = test system: HL-60
# HT-29 = test system: HT-29
# M14 = test system: M14
# MOLT-4 = test system: MOLT-4
# NCI-H226 = test system: NCI-H226
# OVCAR-4 = test system: OVCAR-4
# RXF 393 = test system: RXF 393
# SK-MEL-28 = test system: SK-MEL-28
# SK-MEL-5 = test system: SK-MEL-5
# SNB-19 = test system: SNB-19
# SNB-75 = test system: SNB-75
# SNB-78 = test system: SNB-78
# SR = test system: SR
# SW-620 = test system: SW-620
# DU-145 = test system: DU-145
# MCF7 = test system: MCF7
# SK-MEL-2 = test system: SK-MEL-2
SMILES,GI50 (ACHN),GI50 (HCC 2998),GI50 (HCT-116),GI50 (HL-60),GI50 (HT-29),GI50 (M14),GI50 (MOLT-4),GI50 (NCI-H226),GI50 (OVCAR-4),GI50 (RXF 393),GI50 (SK-MEL-28),GI50 (SK-MEL-5),GI50 (SNB-19),GI50 (SNB-75),GI50 (SNB-78),GI50 (SR),GI50 (SW-620),GI50 (DU-145),GI50 (MCF7),GI50 (SK-MEL-2)
NCCCNCCSSCCCCS(=O)O,55.2 µM (inactive),> 100 µM (inactive),25.7 µM (inactive),10.4 µM (inactive),39.8 µM (inactive),18.5 µM (inactive),5.09 µM (inactive),57.8 µM (inactive),14.6 µM (inactive),30.3 µM (inactive),20.9 µM (inactive),17.2 µM (inactive),> 100 µM (inactive),30.8 µM (inactive),22.8 µM (inactive),3.37 µM (inactive),30.4 µM (inactive),,,
O=C(Nc1nc2ncn(CCOC(=O)c3ccccc3)c2c(=O)[nH]1)c1ccccc1,> 81.1 µM (inactive),97.9 µM (inactive),4.43 µM (inactive),2.59 µM (inactive),3.68 µM (inactive),15.3 µM (inactive),6.64 µM (inactive),28.4 µM (inactive),,42.4 µM (inactive),50.7 µM (inactive),5.51 µM (inactive),17.3 µM (inactive),18.9 µM (inactive),> 100 µM (inactive),5.35 µM (inactive),4.98 µM (inactive),31.8 µM (inactive),4.4 µM (inactive),35.2 µM (inactive)
N#C/C(=C\c1cc2ccccc2c2ccccc12)c1ccccc1,14.5 µM (inactive),11 µM (inactive),5.3 µM (inactive),3.04 µM (inactive),4.45 µM (inactive),6.05 µM (inactive),7.26 µM (inactive),43.8 µM (inactive),11.2 µM (inactive),5.66 µM (inactive),24 µM (inactive),5.38 µM (inactive),8.99 µM (inactive),2.31 µM (inactive),4.06 µM (inactive),2.9 µM (inactive),4.65 µM (inactive),,,3.39 µM (inactive)
COc1cc(C2C(C(=O)Nc3ccc([N+](=O)[O-])cc3)=C(C)NC(C)=C2C(=O)Nc2ccc([N+](=O)[O-])cc2)ccc1O,24.3 µM (inactive),18.4 µM (inactive),16 µM (inactive),0.515 µM (active),19.4 µM (inactive),23.9 µM (inactive),19.9 µM (inactive),24.2 µM (inactive),27 µM (inactive),19.5 µM (inactive),4.16 µM (inactive),31.8 µM (inactive),25.7 µM (inactive),30.5 µM (inactive),34.8 µM (inactive),5.07 µM (inactive),21.6 µM (inactive),,,15.9 µM (inactive)
Cc1ccc(C)c(NC(=O)CCc2nnc(S)[nH]2)c1,> 100 µM (inactive),> 100 µM (inactive),69.2 µM (inactive),,> 100 µM (inactive),> 100 µM (inactive),> 100 µM (inactive),> 100 µM (inactive),> 100 µM (inactive),> 100 µM (inactive),> 100 µM (inactive),> 100 µM (inactive),> 100 µM (inactive),> 100 µM (inactive),> 100 µM (inactive),6.43 µM (inactive),17.4 µM (inactive),,,> 100 µM (inactive)
Cc1cc(NC(=O)NC(=O)c2ccccc2N(C)C)ccc1Oc1ncc(Br)cn1,3.05 µM (inactive),0.53 µM (active),0.439 µM (active),0.073 µM (active),0.305 µM (active),0.957 µM (active),1.08 µM (active),9.27 µM (inactive),6.68 µM (inactive),0.656 µM (active),0.64 µM (active),0.179 µM (active),0.532 µM (active),0.135 µM (active),1.05 µM (active),0.0541 µM (active),0.301 µM (active),1.06 µM (active),0.249 µM (active),0.733 µM (active)
COc1ccc(NC(=O)COC(=O)c2cccc3c(=O)c4ccccc4[nH]c23)cc1,21.1 µM (inactive),51.1 µM (inactive),12.9 µM (inactive),13.1 µM (inactive),16 µM (inactive),29.6 µM (inactive),14.2 µM (inactive),23.1 µM (inactive),17.9 µM (inactive),15.3 µM (inactive),30.8 µM (inactive),15.3 µM (inactive),30.1 µM (inactive),21 µM (inactive),22.1 µM (inactive),11.3 µM (inactive),22.2 µM (inactive),,,
Cn1ncc2c(c1=O)Nc1ccccc1S2(=O)=O,> 100 µM (inactive),> 100 µM (inactive),50 µM (inactive),,> 100 µM (inactive),> 100 µM (inactive),> 100 µM (inactive),> 100 µM (inactive),> 100 µM (inactive),,> 100 µM (inactive),> 100 µM (inactive),> 100 µM (inactive),> 100 µM (inactive),> 100 µM (inactive),51.3 µM (inactive),10.8 µM (inactive),,,> 100 µM (inactive)
CCOc1cc2c[n+](C)c3c4cc(OC)c(OC)cc4ccc3c2cc1OC,> 100 µM (inactive),> 100 µM (inactive),> 100 µM (inactive),97.5 µM (inactive),13.6 µM (inactive),> 100 µM (inactive),> 100 µM (inactive),> 100 µM (inactive),> 100 µM (inactive),> 100 µM (inactive),> 100 µM (inactive),> 100 µM (inactive),> 100 µM (inactive),> 100 µM (inactive),> 100 µM (inactive),20.4 µM (inactive),> 100 µM (inactive),,,> 100 µM (inactive)
CC(C)(C)c1cc(Cc2ccc([N+](C)(C)C)cc2)c(O)c(C(C)(C)C)c1,> 100 µM (inactive),15.7 µM (inactive),16.7 µM (inactive),2.41 µM (inactive),15.4 µM (inactive),18.2 µM (inactive),11.8 µM (inactive),,30.1 µM (inactive),16.4 µM (inactive),12.5 µM (inactive),10.6 µM (inactive),12.9 µM (inactive),9.2 µM (inactive),14.9 µM (inactive),14.1 µM (inactive),23.2 µM (inactive),,,16.5 µM (inactive)
